In ChEMBL document CHEMBL1136200, “Potent and selective inhibitors of platelet-derived growth factor receptor phosphorylation. Part 4: structure-activity relationships for substituents on the quinazoline moiety of 4-[4-(N-substituted(thio)carbamoyl)-1-piperazinyl]-6,7-dimethoxyquinazoline derivatives” (Bioorg Med Chem Lett, 2003) one finds IC50 data, which are given here for 19 compounds.

Platelet-derived growth factor receptor beta, sequence (P09619 whole entry): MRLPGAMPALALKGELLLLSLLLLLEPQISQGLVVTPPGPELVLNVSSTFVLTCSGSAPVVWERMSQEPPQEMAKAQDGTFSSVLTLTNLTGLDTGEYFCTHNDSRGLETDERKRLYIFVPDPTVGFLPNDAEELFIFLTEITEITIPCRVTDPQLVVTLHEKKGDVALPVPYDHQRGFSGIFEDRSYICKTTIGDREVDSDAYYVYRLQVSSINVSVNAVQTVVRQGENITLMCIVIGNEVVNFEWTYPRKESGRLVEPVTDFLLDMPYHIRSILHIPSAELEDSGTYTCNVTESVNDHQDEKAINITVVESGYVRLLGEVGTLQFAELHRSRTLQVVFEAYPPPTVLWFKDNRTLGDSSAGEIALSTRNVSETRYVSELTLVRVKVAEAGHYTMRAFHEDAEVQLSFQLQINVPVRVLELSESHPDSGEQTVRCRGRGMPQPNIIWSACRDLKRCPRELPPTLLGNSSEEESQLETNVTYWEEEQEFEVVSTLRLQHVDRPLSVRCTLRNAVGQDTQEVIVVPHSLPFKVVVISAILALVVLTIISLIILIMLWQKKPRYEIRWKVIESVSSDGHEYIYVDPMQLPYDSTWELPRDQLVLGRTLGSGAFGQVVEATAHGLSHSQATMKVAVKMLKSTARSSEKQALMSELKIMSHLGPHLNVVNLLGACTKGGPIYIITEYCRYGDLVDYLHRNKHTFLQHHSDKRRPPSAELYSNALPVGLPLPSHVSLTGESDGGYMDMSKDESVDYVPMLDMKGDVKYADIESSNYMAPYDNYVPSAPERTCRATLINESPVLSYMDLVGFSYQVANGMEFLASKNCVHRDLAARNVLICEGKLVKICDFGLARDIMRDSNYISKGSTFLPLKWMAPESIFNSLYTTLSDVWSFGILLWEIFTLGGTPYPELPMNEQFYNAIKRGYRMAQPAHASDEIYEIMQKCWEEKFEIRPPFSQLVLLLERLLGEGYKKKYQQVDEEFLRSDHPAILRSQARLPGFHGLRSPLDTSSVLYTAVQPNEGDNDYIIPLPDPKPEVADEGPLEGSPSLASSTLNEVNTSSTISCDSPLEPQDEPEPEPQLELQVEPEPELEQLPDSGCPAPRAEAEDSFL

This assay concerns the target Platelet-derived growth factor receptor beta (Homo sapiens, UniProt P09619). The assay is described as follows: Inhibitory concentration against platelet-derived growth factor receptor beta phosphorylation in CHO cells. The format is functional, cell-based, Cricetulus griseus.
In turn, `O=C(Nc1ccc(Oc2ccccc2)cc1)N1CCN(c2ncnc3cc(F)c(F)cc23)CC1` yielded a half-maximal inhibitory concentration (IC50) of 970 nM. Turning to `O=C(Nc1ccc(Oc2ccccc2)cc1)N1CCN(c2ncnc3cc([N+](=O)[O-])ccc23)CC1`, the half-inhibitory concentration (IC50) was 2880 nM. Compared with the last compound, the IC50 is about 3-fold higher. `O=[N+]([O-])c1cc2c(N3CCN(C(=S)NCc4ccccc4)CC3)ncnc2cc1Cl` had an IC50 above 30000 nM. For `S=C(NCc1ccccc1)N1CCN(c2ncnc3cc(Cl)ccc23)CC1` the value was 5160 nM; for `COC(=O)c1ccc2c(N3CCN(C(=O)Nc4ccc(Oc5ccccc5)cc4)CC3)ncnc2c1`, above 750 nM; for `CC(C)Oc1ccc2c(N3CCN(C(=O)Nc4ccc(Oc5ccccc5)cc4)CC3)ncnc2c1`, 1120 nM. `O=C(O)c1ccc2c(N3CCN(C(=O)Nc4ccc(Oc5ccccc5)cc4)CC3)ncnc2c1` returned an IC50 above 30000 nM.

Compound `Nc1cc2c(N3CCN(C(=S)NCc4ccccc4)CC3)ncnc2cc1Cl` returned a concentration for half-maximal inhibition (IC50) of 160 nM. This lies in the sub-micromolar range.

`CC(=O)Nc1cc2c(N3CCN(/C(S)=N\Cc4ccccc4)CC3)ncnc2cc1Cl` registered a 50% inhibitory concentration (IC50) above 1000 nM. The compound `Cc1cccc2ncnc(N3CCN(C(=O)Nc4ccc(Oc5ccccc5)cc4)CC3)c12` showed an IC50 of 6250 nM. `Nc1cc2ncnc(N3CCN(C(=O)Nc4ccc(Oc5ccccc5)cc4)CC3)c2cc1[N+](=O)[O-]`: the concentration for half-maximal inhibition (IC50) was determined as 1160 nM. On to `O=C(Nc1ccc(Oc2ccccc2)cc1)N1CCN(c2ncnc3ccc(Br)cc23)CC1`, for which the IC50 was determined as 1380 nM.

The compound `O=C(Nc1ccc(Oc2ccccc2)cc1)N1CCN(c2ncnc3ccc(I)cc23)CC1` gave an IC50 of 5170 nM. `COc1cccc2c(N3CCN(C(=O)Nc4ccc(Oc5ccccc5)cc4)CC3)ncnc12`: the IC50 was 10700 nM. Regarding `Cc1ccc2c(N3CCN(C(=O)Nc4ccc(Oc5ccccc5)cc4)CC3)ncnc2c1`, the IC50 is above 100 nM.

As for `Cc1ccc2ncnc(N3CCN(C(=O)Nc4ccc(Oc5ccccc5)cc4)CC3)c2c1`, the IC50 was found to be 540 nM.

`O=C(Nc1ccc(Oc2ccccc2)cc1)N1CCN(c2ncnc3ccc(F)cc23)CC1`: the IC50 was 350 nM. For the compound `O=C(Nc1ccc(Oc2ccccc2)cc1)N1CCN(c2ncnc3cc(Cl)c([N+](=O)[O-])cc23)CC1`, 1320 nM corresponded to half-maximal inhibition (IC50). For `O=C(Nc1ccc(Oc2ccccc2)cc1)N1CCN(c2ncnc3ccc([N+](=O)[O-])cc23)CC1` the value was 29700 nM.

By IC50 is commonly meant the midpoint of a concentration-inhibition curve.
